Test results reported in ChEMBL document CHEMBL5625207, “RIPK2 inhibitors for disease therapy: Current status and perspectives” (Eur J Med Chem, 2023).

Experiments:
[1] = target: von Hippel-Lindau disease tumor suppressor/Receptor-interacting serine/threonine-protein kinase 2 (Homo sapiens, UniProt O43353+P40337); experiment: Protac activity at VHL/RIPK2 in human THP-1 cells assessed as RIPK2 degradation measured after 16 hrs by Western blot analysis; format: cell-based
[2] = target: T1, Receptor-interacting serine/threonine-protein kinase 2 (Homo sapiens, UniProt O43353); experiment: Inhibition of full length FLAG His-tagged RIPK2 (unknown origin) expressed in Baculovirus by fluorescence polarization assay
T1 sequence (O43353 whole entry): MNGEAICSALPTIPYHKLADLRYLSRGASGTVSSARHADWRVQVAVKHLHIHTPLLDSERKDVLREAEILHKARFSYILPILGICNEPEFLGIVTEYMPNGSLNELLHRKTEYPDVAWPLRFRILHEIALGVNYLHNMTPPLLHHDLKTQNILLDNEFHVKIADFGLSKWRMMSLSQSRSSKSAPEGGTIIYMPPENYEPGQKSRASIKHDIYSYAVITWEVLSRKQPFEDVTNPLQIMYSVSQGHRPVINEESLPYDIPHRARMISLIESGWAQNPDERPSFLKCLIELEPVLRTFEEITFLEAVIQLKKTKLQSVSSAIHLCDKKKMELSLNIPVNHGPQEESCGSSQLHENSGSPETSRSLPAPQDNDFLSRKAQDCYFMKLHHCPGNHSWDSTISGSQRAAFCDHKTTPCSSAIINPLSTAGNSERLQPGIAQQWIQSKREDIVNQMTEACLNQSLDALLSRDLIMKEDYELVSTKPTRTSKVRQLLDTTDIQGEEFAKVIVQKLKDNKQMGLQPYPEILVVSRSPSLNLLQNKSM

[3] = target: T1, Receptor-interacting serine/threonine-protein kinase 2; experiment: Inhibition of RIPK2 (unknown origin) using (CRRKSLVGTPYWMAPE) peptide as substrate pre-incubated for 60 mins followed by substrate addition and measured after 2 hrs by fluorescence polarization assay
[4] = target: T1, Receptor-interacting serine/threonine-protein kinase 2; experiment: Inhibition of RIPK2 (unknown origin) by ADP-Glo assay
[5] = target: T1, Receptor-interacting serine/threonine-protein kinase 2; experiment: Inhibition of RIPK2 (unknown origin)
[6] = target: T1, Receptor-interacting serine/threonine-protein kinase 2; experiment: Inhibition of RIPK2 (unknown origin) expressed in Escherichia coli

von Hippel-Lindau disease tumor suppressor/Receptor-interacting serine/threonine-protein kinase 2, sequence (O43353 whole entry): as above
von Hippel-Lindau disease tumor suppressor/Receptor-interacting serine/threonine-protein kinase 2, sequence (P40337 whole entry): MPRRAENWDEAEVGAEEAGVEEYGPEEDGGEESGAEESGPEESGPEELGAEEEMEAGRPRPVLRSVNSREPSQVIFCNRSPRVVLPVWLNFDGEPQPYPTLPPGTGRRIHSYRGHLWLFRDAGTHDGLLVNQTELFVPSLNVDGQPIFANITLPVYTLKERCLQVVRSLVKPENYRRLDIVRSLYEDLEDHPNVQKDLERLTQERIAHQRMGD

SMILES: Cc1ncsc1-c1ccc(CNC(=O)C2C[C@H](O)CN2C(=O)[C@@H](NC(=O)COCCOCCOCCOCCOc2cc3nccc(Nc4ccc5scnc5c4)c3cc2S(=O)(=O)C(C)(C)C)C(C)(C)C)cc1 (some centres undefined)
- IC50 [1]: 2 nM

SMILES: Cc1ccc(-c2nn(C(C)(C)CN(C)C)c3ncnc(N)c23)cc1
- IC50 [2]: 10 nM
- IC50 [3]: 1010 nM

SMILES: c1cc(-c2ccc3ncnc(Nc4ccc5scnc5c4)c3c2)ccn1
- IC50 [2]: 5.1 nM
- IC50 [4]: 5.1 nM

SMILES: Cc1ccc(-c2cn([C@H]3CC[C@@H](N)CC3)c3ncnc(N)c23)c(F)c1
- IC50 [2]: 0.6 nM
- IC50 [5]: 0.6 nM

SMILES: c1cc2cc(n1)NCCOCCNc1ccc3ncc-2n3n1
- IC50 [2]: 14.1 nM
- IC50 [6]: 14.1 nM
